The record followed here is ChEMBL document CHEMBL1145498, “A systematic interaction map of validated kinase inhibitors with Ser/Thr kinases” (Proc Natl Acad Sci U S A, 2007).

Assay [1] has as its target 5'-AMP-activated protein kinase catalytic subunit alpha-2 (Homo sapiens) (UniProt P54646).
Assay [2] deals with Calcium/calmodulin-dependent protein kinase type 1D (Homo sapiens) (UniProt Q8IU85).
Assay [3] has as its target Calcium/calmodulin-dependent protein kinase type 1G (Homo sapiens) (UniProt Q96NX5).
Assay [4] deals with Dual specificity protein kinase CLK2 (Homo sapiens) (UniProt P49760).
Assay [5] addresses Serine/threonine-protein kinase 26 (Homo sapiens) (UniProt Q9P289).
For assay [6], the target named is T1, Serine/threonine-protein kinase Nek2 (Homo sapiens) (UniProt P51955).
T1 sequence (whole entry): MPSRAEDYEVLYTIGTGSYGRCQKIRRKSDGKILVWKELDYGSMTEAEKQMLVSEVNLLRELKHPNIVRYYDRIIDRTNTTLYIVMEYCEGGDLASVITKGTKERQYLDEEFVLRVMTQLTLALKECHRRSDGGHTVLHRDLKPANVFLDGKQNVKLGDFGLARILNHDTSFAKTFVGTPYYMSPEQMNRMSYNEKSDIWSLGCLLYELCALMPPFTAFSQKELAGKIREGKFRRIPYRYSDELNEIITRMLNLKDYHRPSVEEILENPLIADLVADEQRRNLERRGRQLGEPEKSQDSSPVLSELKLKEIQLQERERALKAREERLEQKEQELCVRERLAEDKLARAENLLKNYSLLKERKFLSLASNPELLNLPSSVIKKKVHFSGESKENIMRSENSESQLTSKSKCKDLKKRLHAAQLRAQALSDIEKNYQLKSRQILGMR

The target of assay [7] is Serine/threonine-protein kinase OSR1 (Homo sapiens) (UniProt O95747).
Assay [8] deals with Serine/threonine-protein kinase PAK 5 (Homo sapiens) (UniProt Q9P286).
Assay [9] addresses T2, Serine/threonine-protein kinase PLK4 (Homo sapiens) (UniProt O00444).
T2 sequence (whole entry): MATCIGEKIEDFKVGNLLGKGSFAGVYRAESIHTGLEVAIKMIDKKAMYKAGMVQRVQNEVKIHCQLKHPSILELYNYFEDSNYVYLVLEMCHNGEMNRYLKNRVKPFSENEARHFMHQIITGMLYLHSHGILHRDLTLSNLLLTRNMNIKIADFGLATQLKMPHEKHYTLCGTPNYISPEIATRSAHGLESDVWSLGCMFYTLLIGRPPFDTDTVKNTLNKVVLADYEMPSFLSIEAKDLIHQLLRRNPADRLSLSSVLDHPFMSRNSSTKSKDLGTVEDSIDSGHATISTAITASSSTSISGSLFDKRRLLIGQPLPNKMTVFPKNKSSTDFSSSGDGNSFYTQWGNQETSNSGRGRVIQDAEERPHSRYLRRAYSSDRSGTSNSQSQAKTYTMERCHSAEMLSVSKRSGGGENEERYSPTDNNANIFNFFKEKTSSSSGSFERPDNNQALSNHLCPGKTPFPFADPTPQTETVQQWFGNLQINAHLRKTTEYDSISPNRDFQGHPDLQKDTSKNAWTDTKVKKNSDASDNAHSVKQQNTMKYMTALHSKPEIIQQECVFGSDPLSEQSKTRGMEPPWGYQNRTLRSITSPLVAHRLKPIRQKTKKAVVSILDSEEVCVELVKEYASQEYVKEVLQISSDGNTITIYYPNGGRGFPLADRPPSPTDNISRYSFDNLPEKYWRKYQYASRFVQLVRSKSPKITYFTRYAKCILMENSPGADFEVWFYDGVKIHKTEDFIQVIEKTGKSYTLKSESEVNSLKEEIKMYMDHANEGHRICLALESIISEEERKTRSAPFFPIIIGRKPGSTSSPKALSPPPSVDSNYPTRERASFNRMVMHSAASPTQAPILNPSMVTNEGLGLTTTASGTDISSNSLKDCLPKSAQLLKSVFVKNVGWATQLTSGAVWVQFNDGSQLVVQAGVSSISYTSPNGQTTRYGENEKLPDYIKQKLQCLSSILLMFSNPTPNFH

Assay [10] addresses Serine/threonine-protein kinase RIO2 (Homo sapiens) (UniProt Q9BVS4).
The target in assay [11] is Serine/threonine-protein kinase 16 (Homo sapiens) (UniProt O75716).
Assay [12] addresses T3, Serine/threonine-protein kinase VRK3 (Homo sapiens) (UniProt Q8IV63).
T3 sequence (whole entry): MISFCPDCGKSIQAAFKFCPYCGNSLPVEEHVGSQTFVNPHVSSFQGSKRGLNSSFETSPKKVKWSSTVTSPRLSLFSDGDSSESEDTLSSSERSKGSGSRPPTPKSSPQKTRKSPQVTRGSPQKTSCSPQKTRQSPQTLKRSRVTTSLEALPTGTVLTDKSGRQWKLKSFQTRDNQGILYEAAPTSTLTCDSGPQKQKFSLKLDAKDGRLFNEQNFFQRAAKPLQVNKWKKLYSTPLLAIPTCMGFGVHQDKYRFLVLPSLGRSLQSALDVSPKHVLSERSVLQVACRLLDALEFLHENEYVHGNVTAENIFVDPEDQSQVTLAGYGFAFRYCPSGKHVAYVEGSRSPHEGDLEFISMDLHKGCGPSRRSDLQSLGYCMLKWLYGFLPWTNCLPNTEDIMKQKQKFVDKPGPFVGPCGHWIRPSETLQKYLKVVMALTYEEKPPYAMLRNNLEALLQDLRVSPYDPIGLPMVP

Assay [13] deals with Serine/threonine-protein kinase 25 (Homo sapiens) (UniProt O00506).
Assay [14] has as its target Cyclin-dependent kinase 2 (Homo sapiens, UniProt P24941).
Assay [15] addresses T4, Dual specificity mitogen-activated protein kinase kinase 6 (Homo sapiens) (UniProt P52564).
T4 sequence (whole entry): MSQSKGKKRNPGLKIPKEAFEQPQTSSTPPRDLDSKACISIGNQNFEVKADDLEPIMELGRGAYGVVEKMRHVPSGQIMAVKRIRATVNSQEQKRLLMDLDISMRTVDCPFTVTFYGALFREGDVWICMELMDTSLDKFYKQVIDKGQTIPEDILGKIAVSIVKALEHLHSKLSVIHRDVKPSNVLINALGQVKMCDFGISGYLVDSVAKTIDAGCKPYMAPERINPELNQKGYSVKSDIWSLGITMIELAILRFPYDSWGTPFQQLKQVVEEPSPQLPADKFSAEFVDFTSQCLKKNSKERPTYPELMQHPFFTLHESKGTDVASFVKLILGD

Calcium/calmodulin-dependent protein kinase type 1G (Homo sapiens), sequence (Q96NX5 whole entry): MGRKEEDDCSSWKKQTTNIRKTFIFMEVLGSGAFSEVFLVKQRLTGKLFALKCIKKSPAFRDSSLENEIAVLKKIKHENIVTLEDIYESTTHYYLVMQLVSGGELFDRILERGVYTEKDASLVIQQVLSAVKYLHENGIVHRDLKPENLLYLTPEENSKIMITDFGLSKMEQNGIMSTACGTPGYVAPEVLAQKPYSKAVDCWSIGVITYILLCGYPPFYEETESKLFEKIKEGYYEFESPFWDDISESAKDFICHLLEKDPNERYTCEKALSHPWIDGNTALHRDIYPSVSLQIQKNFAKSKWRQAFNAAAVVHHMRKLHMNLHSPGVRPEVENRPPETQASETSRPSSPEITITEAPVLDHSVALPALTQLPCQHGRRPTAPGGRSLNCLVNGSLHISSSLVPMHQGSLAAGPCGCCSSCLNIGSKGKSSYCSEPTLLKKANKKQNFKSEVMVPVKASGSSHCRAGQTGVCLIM
5'-AMP-activated protein kinase catalytic subunit alpha-2 (Homo sapiens), sequence (P54646 whole entry, looked up): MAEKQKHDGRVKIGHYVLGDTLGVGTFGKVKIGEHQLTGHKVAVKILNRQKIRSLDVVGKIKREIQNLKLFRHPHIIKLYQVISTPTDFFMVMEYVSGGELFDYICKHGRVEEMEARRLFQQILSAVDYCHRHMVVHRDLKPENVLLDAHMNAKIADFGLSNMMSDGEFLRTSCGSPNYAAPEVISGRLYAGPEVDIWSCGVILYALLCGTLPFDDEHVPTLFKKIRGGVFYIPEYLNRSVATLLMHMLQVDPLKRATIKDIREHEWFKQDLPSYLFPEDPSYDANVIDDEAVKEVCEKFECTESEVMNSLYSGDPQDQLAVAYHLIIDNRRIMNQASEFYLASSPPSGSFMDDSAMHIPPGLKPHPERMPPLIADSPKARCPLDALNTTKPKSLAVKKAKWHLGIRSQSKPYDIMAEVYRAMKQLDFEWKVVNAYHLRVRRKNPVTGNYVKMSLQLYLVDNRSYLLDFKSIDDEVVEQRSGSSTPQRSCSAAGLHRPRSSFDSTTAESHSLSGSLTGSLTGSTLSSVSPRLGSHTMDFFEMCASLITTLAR
Serine/threonine-protein kinase PAK 5 (Homo sapiens), sequence (Q9P286 whole entry, looked up): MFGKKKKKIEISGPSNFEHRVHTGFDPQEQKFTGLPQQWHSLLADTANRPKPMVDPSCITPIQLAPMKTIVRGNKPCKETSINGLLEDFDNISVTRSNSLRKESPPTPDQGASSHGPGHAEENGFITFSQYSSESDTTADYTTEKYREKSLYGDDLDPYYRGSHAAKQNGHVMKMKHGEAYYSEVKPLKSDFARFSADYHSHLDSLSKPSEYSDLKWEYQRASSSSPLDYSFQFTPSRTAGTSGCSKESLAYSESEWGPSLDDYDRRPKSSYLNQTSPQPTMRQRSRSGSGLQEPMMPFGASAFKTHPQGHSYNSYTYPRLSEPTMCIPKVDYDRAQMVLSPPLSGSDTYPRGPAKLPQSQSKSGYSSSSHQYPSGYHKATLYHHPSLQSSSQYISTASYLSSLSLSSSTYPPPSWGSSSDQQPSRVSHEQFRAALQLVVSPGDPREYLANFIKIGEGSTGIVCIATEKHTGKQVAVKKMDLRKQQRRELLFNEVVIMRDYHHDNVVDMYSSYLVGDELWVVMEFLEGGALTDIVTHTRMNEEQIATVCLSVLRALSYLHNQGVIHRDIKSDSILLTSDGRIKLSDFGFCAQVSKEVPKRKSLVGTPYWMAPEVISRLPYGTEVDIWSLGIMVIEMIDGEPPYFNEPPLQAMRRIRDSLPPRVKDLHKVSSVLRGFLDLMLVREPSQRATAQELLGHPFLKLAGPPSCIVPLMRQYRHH
Serine/threonine-protein kinase RIO2 (Homo sapiens), sequence (Q9BVS4 whole entry, looked up): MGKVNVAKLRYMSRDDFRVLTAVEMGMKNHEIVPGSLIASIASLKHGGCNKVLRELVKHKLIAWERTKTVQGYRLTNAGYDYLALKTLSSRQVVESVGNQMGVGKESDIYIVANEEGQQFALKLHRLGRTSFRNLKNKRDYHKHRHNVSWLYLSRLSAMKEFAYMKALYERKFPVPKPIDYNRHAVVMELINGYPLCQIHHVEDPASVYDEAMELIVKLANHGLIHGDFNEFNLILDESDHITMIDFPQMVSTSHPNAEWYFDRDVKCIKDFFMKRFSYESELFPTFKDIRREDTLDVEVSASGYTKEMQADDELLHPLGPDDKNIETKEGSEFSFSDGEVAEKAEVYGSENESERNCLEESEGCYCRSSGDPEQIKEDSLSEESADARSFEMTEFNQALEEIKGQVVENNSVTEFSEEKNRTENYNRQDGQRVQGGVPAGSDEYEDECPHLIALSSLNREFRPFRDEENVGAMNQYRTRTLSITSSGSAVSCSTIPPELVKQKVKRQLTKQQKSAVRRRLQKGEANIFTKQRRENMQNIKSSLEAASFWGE
Serine/threonine-protein kinase 26 (Homo sapiens), sequence (Q9P289 2-416 limits assumed): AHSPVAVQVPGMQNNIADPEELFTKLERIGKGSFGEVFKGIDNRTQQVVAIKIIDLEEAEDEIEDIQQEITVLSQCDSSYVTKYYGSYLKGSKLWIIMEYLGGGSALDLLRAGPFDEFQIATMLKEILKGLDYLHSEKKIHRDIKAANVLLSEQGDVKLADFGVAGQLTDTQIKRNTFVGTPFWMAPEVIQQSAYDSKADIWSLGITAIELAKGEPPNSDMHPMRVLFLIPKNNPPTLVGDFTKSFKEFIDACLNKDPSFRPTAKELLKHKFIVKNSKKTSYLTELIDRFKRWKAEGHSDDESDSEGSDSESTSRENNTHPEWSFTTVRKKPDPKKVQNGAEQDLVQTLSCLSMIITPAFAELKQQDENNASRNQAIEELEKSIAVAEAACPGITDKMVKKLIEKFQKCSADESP
Serine/threonine-protein kinase 25 (Homo sapiens), sequence (O00506 whole entry, looked up): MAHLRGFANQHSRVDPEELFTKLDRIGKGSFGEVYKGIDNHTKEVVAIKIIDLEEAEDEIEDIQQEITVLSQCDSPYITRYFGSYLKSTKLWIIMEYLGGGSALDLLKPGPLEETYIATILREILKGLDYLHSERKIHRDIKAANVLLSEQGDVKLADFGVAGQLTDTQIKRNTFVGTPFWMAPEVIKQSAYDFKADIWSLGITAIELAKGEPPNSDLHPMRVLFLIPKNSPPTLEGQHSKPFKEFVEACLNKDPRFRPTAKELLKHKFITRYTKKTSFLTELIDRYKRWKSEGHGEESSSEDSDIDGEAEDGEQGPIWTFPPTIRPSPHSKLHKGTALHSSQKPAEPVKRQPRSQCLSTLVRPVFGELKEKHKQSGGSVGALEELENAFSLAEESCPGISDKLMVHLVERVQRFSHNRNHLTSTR
Serine/threonine-protein kinase OSR1 (Homo sapiens), sequence (O95747 2-527 limits assumed): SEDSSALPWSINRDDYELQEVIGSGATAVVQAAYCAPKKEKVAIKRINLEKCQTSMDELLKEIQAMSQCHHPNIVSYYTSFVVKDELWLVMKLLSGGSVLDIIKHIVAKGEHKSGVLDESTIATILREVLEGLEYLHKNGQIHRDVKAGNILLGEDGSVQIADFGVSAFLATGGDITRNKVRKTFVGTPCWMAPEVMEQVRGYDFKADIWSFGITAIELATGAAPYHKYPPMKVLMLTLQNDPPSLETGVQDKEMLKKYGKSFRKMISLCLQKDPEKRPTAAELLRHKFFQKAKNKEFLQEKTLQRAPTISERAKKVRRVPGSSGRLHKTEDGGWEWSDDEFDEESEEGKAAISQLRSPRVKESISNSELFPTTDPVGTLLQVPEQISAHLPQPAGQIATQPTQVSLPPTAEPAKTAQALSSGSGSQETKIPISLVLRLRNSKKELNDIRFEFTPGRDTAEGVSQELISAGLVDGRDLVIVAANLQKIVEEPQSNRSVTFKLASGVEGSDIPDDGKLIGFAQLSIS
Calcium/calmodulin-dependent protein kinase type 1D (Homo sapiens), sequence (Q8IU85 whole entry, looked up): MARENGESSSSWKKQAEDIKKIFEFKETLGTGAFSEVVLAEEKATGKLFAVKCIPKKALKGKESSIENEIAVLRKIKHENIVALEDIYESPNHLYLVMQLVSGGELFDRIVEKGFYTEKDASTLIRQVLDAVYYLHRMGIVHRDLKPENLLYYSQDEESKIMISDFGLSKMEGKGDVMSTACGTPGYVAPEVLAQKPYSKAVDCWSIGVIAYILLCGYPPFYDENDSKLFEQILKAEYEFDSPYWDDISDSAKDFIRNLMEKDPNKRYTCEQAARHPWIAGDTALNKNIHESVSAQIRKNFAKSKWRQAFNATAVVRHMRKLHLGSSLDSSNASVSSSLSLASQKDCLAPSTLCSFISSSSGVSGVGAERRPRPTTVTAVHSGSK
Serine/threonine-protein kinase 16 (Homo sapiens), sequence (O75716 whole entry): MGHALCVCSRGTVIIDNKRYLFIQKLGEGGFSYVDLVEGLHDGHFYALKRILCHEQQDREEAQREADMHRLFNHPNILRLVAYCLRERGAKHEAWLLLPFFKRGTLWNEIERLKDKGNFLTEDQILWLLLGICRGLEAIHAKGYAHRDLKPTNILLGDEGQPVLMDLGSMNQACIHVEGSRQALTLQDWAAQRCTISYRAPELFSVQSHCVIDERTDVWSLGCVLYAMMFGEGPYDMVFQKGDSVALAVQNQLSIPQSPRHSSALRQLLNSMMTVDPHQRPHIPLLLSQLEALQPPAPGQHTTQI
Dual specificity protein kinase CLK2 (Homo sapiens), sequence (P49760 whole entry, looked up): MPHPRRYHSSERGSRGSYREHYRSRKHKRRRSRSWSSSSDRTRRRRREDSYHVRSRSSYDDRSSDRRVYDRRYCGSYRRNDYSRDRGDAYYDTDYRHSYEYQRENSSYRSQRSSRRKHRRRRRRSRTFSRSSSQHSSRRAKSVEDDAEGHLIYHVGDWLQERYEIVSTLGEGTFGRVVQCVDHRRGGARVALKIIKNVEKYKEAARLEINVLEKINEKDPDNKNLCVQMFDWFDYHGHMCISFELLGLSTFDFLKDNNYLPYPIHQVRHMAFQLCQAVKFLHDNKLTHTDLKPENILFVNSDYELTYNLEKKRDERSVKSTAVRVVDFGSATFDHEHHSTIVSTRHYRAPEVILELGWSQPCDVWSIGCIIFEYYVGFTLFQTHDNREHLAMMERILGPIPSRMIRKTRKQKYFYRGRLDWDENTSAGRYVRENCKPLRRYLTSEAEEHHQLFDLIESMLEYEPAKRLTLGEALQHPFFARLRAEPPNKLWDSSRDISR

As for `COC(=O)[C@]1(O)C[C@@H]2O[C@@]1(C)n1c3ccccc3c3c4c(c5c6ccccc6n2c5c31)C(=O)NC4` (single isomer, unassigned), the shift in melting temperature (ΔTm) in assay [1] was 7.6 °C; in assay [2], 4 °C; in assay [3], 2.2 °C; in assay [4], 4.8 °C; in assay [5], 3 °C; in [6] it was 1.9 °C. The ΔTm in assay [7] is 1.8 °C; in [8] it was 5.5 °C; in assay [9], 12.5 °C; in assay [10] it was 1.4 °C; in assay [11], 2.3 °C; in [12], -0.2 °C. In assay [13], the ΔTm stood at 4.4 °C.

`O=C(O)Cc1ccc(O)c([N+](=O)[O-])c1`: the ΔTm in [1] came to 0.1 °C; in assay [2], 0 °C; in [3], 0.6 °C; in assay [14], 1.1 °C; in [4] it was 0.5 °C; in [15], 0 °C. In addition, the ΔTm in assay [5] is -0.4 °C; in assay [6] it was 1.9 °C; in assay [7], 0 °C; in [8] it was 0.1 °C; in [9], 0.8 °C; in [10], -0.1 °C. In addition, the ΔTm in [11] was 0.4 °C; in assay [12], -0.3 °C.

Regarding `COc1cc2ncnc(Nc3ccc(F)c(Cl)c3)c2cc1OCCCN1CCOCC1`, the ΔTm in [1] is -0.3 °C; in assay [2] it was 0.4 °C; in assay [3] it was 1 °C; in assay [14], 0 °C; in assay [4], 0 °C; in [15], 0.1 °C. Besides, the shift in melting temperature (ΔTm) in assay [5] was found to be 0 °C; in [6], 1.1 °C; in assay [7], 0.2 °C; in assay [8], 0.2 °C; in [9], 0 °C; in assay [10], 2 °C. The ΔTm came out at 3.1 °C in assay [11] and 0.6 °C in assay [12].

For `COc1cc2ncnc(Nc3cccc(O)c3)c2cc1OC`, the ΔTm is -0.5 °C in [1]; -0.1 °C in [2]; 1.3 °C in assay [4]; 0.2 °C in [6]; 0.2 °C in assay [7]; 0.5 °C in assay [8]. Also, the ΔTm in assay [9] was 3.9 °C; in [10], 3.4 °C; in assay [11] it was 0.4 °C; in [13] it was 0.6 °C.

As for `Nc1nccc(-c2c(-c3ccc(F)cc3)ncn2C2CCNCC2)n1`, the shift in melting temperature (ΔTm) in assay [1] was 0.4 °C; in [2], -0.2 °C; in assay [3], 0.3 °C; in assay [14], -0.8 °C; in assay [4] it was 0.3 °C; in assay [15], 0.2 °C. Further, the shift in melting temperature (ΔTm) in assay [5] is -1.3 °C; in assay [6], 1.1 °C; in assay [7], 0.3 °C; in [8], 0 °C; in [9], 0.2 °C; in [10] it was 0.2 °C. In addition, the thermal shift (ΔTm) in assay [11] is -0.1 °C; in [12], 0 °C.

On to `O=C(O)c1cc(NCc2cc(O)ccc2O)ccc1O`, for which the ΔTm in assay [1] was -0.8 °C; in [2], -0.1 °C; in assay [3], -0.1 °C; in [14], 0.4 °C; in assay [4], -0.1 °C; in [15], -0.2 °C. Moreover, the thermal shift (ΔTm) was 0.9 °C in [5]; 0.7 °C in assay [6]; 0 °C in assay [7]; -0.3 °C in assay [8]; 0.1 °C in assay [9]; 0 °C in [10]. Moreover, the shift in melting temperature (ΔTm) in [11] was found to be 0.5 °C; in assay [12], 0.1 °C.

With `O=c1c(-c2ccc(O)cc2)coc2cc(O)cc(O)c12`, the ΔTm in assay [1] was 1.6 °C; in assay [2], 0.7 °C; in [3], -0.1 °C; in [14], 0.7 °C; in [4] it was 0.5 °C; in [15], 0.9 °C. The ΔTm is 1 °C in [5]; -0.1 °C in assay [6]; -0.2 °C in assay [7]; 0.2 °C in assay [8]; 0.4 °C in [9]; 0.6 °C in assay [10]. The ΔTm stood at 4.3 °C in assay [11] and 1.2 °C in assay [12].

For `O=c1c(-c2ccc(F)cc2)c(-c2ccncc2)[nH]n1-c1ccc(Cl)cc1`, the shift in melting temperature (ΔTm) in assay [1] worked out at 0.2 °C; in assay [2] it was 0.1 °C; in assay [3], 1.3 °C; in assay [14] it was 0.2 °C; in [4] it was 0.8 °C; in assay [15], 0.3 °C. Moreover, the thermal shift (ΔTm) in assay [5] is -0.5 °C; in [6], 1.4 °C; in assay [7], 0.2 °C; in assay [8], -0.1 °C; in assay [9], 1 °C; in assay [10] it was -0.2 °C. The thermal shift (ΔTm) in assay [11] is 0.1 °C; in assay [12] it was -1.1 °C.

For the molecule `CN[C@@H]1CC2O[C@@](C)([C@@H]1OC)n1c3ccccc3c3c4c(c5c6ccccc6n2c5c31)C(=O)NC4`, the ΔTm was determined as 16.7 °C in assay [1]; 6.9 °C in assay [4]; 11.6 °C in [15]; 9.3 °C in [5]; 2.8 °C in assay [6]; 6.9 °C in [7]. Further, the thermal shift (ΔTm) in assay [8] is 12.4 °C; in assay [9], 21.2 °C; in [10], 0.5 °C; in assay [11], 9.6 °C; in [12], 0.3 °C; in assay [13] it was 9.6 °C.

For `C#Cc1cccc(Nc2ncnc3cc(OCCOC)c(OCCOC)cc23)c1`, the ΔTm was -0.6 °C in assay [1]; 0.1 °C in [2]; 0 °C in assay [3]; -0.6 °C in assay [14]; 0.3 °C in [4]; 0.2 °C in assay [15]. Moreover, the shift in melting temperature (ΔTm) was -0.4 °C in [5]; 1 °C in assay [6]; 0 °C in assay [7]; 0.1 °C in assay [8]; -0.1 °C in assay [9]; 0.3 °C in assay [10]. Also, the ΔTm came out at 0.7 °C in [11] and 0.2 °C in [12].
